Data taken from US20240327415A1, “Multicomponent Complexes, Including Salts, Crystalline Forms, and Hydrates and Solvates of ENT1 Inhibitors” (iTeos Belgium SA, priority 2023, published 2024).
Each block holds one compound with its values, some of them ahead of it.

Key:
Assay type in all cases: physicochemical
[1] = seven-day solid stability studies (ambient; 40° C./75% RH; 80° C.), XRPD and HPLC
Method: In the experiment, one set of vials was exposed to ambient light, temperature and humidity conditions. Another was exposed openly to 40° C. and 75% RH conditions and a third was sealed and exposed to 80° C. conditions. After 7 days, XRPD and HPLC measurements were collected.
Example 12-Stability Studies of Amorphous Compound 1 (free base) and Crystalline Form 1 Compound 1 (free base): Seven-day stability studies were carried out comparing amorphous Compound 1 (free base) and crystalline Form 1 Compound 1 (free base) at 40° C./75% RH, under ambient conditions and at 80° C. After storage at 40° C./75% RH and 80° C., the amorphous material formed glassy solids which were pale yellow (40° C./75% RH) or orange (80° C.). It is likely that the material melted and re-solidified at 80° C. and deliquesced at 40° C./75% RH. […] (decrease in purity of ca. 11% area).
Example 15-Stabilities Studies-Crystalline Form 3 Compound 1 di(hydrogen sulfate) and Crystalline Form 4 Compound 1 mono(hydrogen sulfate): Seven-day stability studies were carried out on the prepared crystalline Form 3 Compound 1 di(hydrogen sulfate) and crystalline Form 4 Compound 1 mono(hydrogen sulfate) using the following conditions: (1) Ambient light, temperature and humidity conditions (open vial); (2) 40° C./75% RH (open vial); and (3) 80° C. (closed vial). After 7 days of storage under the specified conditions, XRPD and HPLC analyses were carried out on the residual solid materials, and the results are summarized in Table 51.
Example 18-Seven Day Stability Study on Crystalline Form 2 Compound 1 di(hydrogen sulfate) trihydrate: A 7-day stability study was conducted on crystalline Form 2 Compound 1 di(hydrogen sulfate) trihydrate using the following conditions: (1) ambient light, temperature, and humidity conditions (open vial); (2) 40° C., 75% RH (open vial); and (3) 80° C. (closed vial). After 7 days of storage under the specified, XRPD and HPLC analyses were carried out on the residual solid materials.

[2] = Dynamic Vapor Sorption (DVS); details: for post-DVS sample (XRPD / appearance): DVS at 25° C.
Method: (§1) METHOD A: In Example 11, approximately 5-15 mg of sample was placed into a mesh vapor sorption balance pan and loaded into either a DVS Intrinsic or DVS Advantage dynamic vapor sorption balance by Surface Measurement Systems. The sample was subjected to a ramping profile from 40-90% relative humidity (RH) at 10% increments, maintaining the sample at each step until a stable weight had been achieved (dm/dt 0.004%, minimum step length 30 minutes, maximum step length 500 minutes) at 25° C. After completion of the sorption cycle, the sample was dried using the same procedure to 0% RH and then a second sorption cycle back to 40% RH was carried out. Two cycles were performed. The weight change during the sorption/desorption cycles were plotted, allowing the hygroscopic nature of the sample to be determined. XRPD analysis was then carried out on the residual solid.
as §1, with “B:” for “A:”, “Examples 2A, 3, 14, and 17,” for “Example 11,”, “10-20” for “5-15”, “determined.” for “determined. XRPD analysis was then carried out on the residual solid.”
as §1, with “Approximately 10-20” for “METHOD A: In Example 11, approximately 5-15”, “RH” for “relative humidity (RH)”, “min,” for “minutes,”, “min)” for “minutes)”, “determined.” for “determined. XRPD analysis was then carried out on the residual solid.”

[3] = Karl Fischer coulometric titration (water content)
Method: In the examples below, KF titration measured using either an In Motion KF Autosampler or Direct Addition Method. The In Motion KF Autosampler was carried out via the following procedure. 15-20 mg of solid was weighed into a 10 mL glass vial and tightly sealed with a screw cap. Samples were analyzed using a Mettler Toledo C30SX and an InMotion KFOven Autosampler at 130° C. Samples were analyzed in duplicate and an average moisture content reported. See table below for further details.
The Direct Addition Method was carried out via the following procedure. 15-20 mg of solid material was accurately weighed into a vial. The solid was then manually introduced into the titration cell of a Mettler Toledo C30 Compact Titrator. The vial was back-weighed after the addition of the solid and the weight of the added solid entered on the instrument. Titration was initiated once the sample had fully dissolved in the cell. The water content was calculated automatically by the instrument as a percentage and the data printed.

[4] = Variable Temperature X-Ray Powder Diffraction (VT-XRPD)
Method: (§2) In the examples below, VT-XRPD analysis was carried out on a Philips X'Pert Pro Multipurpose diffractometer equipped with a temperature chamber. The samples were scanned between 4 and 36° 2θ using Cu K radiation (α1 λ=1.54060 Å; α2=1.54443 Å; β=1.39225 Å; α1: α2 ratio=0.5; most, if not all, B radiation is removed from the beam using an X-ray mirror) running in Bragg-Brentano geometry (step size 0.008° 2θ) using 40 kV/40 mA generator settings. Measurements were carried out from ambient temperature to an upper limit of 250° C., with a final measurement taken after cooling.
as §2, with “VT-XRPD” for “In the examples below, VT-XRPD”, “Å; β2=1.39225” for “Å; β=1.39225”, “Å; α1:α2” for “Å; α1: α2”, “all, β” for “all, B”

[5] = 7 days, 40° C./75% RH (open vial)

SMILES: COc1cc(C(=O)O[C@@H]2CCCOc3cc(cc(OC)c3OC)C(=O)NCCCN3CCCN(CC2)CC3)cc(OC)c1OC.O=S(=O)(O)O.O=S(=O)(O)O [crystalline Form 3 Compound 1 di(hydrogen sulfate)]
7-day Stability studies: Purity compared to input [1]: Purity similar | solid form by XRPD after storage ([1]; 7 days, 40° C./75% RH): Conversion to crystalline Form 2 Compound 1 di(hydrogen sulfate) trihydrate | solid form by XRPD after storage ([1]; 7 days, 80° C.): mixture of crystalline Form 3 Compound 1 di(hydrogen sulfate) and crystalline Form 9 Compound 1 di(hydrogen sulfate) | solid form by XRPD after storage ([1]; 7 days, ambient conditions): conversion to crystalline Form 6 Compound 1 di(hydrogen sulfate) | 7-day Stability studies: solid form ([1]; at 80° C.): Form 9 at 80 °C | 7-day Stability studies: solid form ([1]; at ambient): Form 6 at ambient; | DVS: solid form conversion [2]: Conversion to P2 | post-DVS sample (XRPD / appearance) [2]: conversion to crystalline Form 2 Compound 1 di(hydrogen sulfate) trihydrate | DVS uptake ([2]; at 80% RH): 7.3% uptake at | moisture uptake (DVS) ([2]; between 0-10% RH, 25° C.): about 5.2% | moisture uptake (DVS) ([2]; between 10-80% RH, 25° C.): ca. 2.1% | moisture uptake (DVS) ([2]; between 40-80% RH, first sorption cycle, 25° C.): ca. 7.1% | KF moisture content [3]: 1.89% moisture | VT-XRPD: Conv. To Form 9 from [4]: from 50-160 °C | VT-XRPD: Melt from [4]: Melt from 160 °C | VT-XRPD: input form retained at [4]: at 25-50 °C | temperature range in which the form is retained (VT-XRPD) [4]: 25-40 °C | VT-XRPD Results ([4]; Heating, 50° C., hold 30 min): 3 (trace of 9)

7-day Stability studies: Purity compared to input [1]: Purity similar | HPLC [1, 5]: 99.86 % area | XRPD [1, 5]: 2 | HPLC ([1]; 7 days, 80° C. (closed vial)): 99.85 % area | XRPD ([1]; 7 days, 80° C. (closed vial)): 2 | HPLC ([1]; 7 days, Ambient (open vial)): 99.86 % area | XRPD ([1]; 7 days, Ambient (open vial)): 2 | HPLC ([1]; Input sample): 99.92 % area | XRPD ([1]; Input sample): 2 | 7-day Stability studies: solid form ([1]; all conditions): No change | DVS: Dehydrates [2]: Dehydrates <15% RH | DVS uptake ([2]; at 80% RH): 8.0% uptake at | moisture uptake (DVS) ([2]; between 0-10% RH, 25° C.): about 6.3% | moisture uptake (DVS) ([2]; between 10-80% RH, 25° C.): 1.7% | KF moisture content [3]: 6.74% moisture | VT-XRPD: Conv. To Form 5 at [4]: at 80-130 °C | VT-XRPD: Melt from [4]: Melt from 150 °C | VT-XRPD: input form retained at [4]: at 30-50 °C
SMILES: CCCN1CCNCCCNC(=O)c2cc(OC)c(OC)c(c2)OCCC[C@@H](OC(=O)c2cc(OC)c(OC)c(OC)c2)CC1

SMILES: COc1cc(C(=O)O[C@@H]2CCCOc3cc(cc(OC)c3OC)C(=O)NCCCN3CCCN(CC2)CC3)cc(OC)c1OC.O=S(=O)(O)O
7-day Stability studies: Purity compared to input [1]: Purity similar | solid form by XRPD after storage ([1]; 7 days, 40° C./75% RH): retained | solid form by XRPD after storage ([1]; 7 days, 80° C.): predominantly amorphous | solid form by XRPD after storage ([1]; 7 days, ambient conditions): retained | 7-day Stability studies: solid form ([1]; all conditions): Form 4 retained | 7-day Stability studies: crystallinity ([1]; at 80° C., printed 'crystallinity significantly reduced'): reduced at 80° C.) | post-DVS sample (XRPD / appearance) [2]: conversion to crystalline Form 8 Compound 1 mono(hydrogen sulfate) | DVS: Conversion to (solid form) ([2]; after DVS at 40% RH): Form 8 after | DVS loss ([2]; at 20-30% RH (desorption)): 8.0% loss at | DVS uptake ([2]; at 40-50% RH (2nd sorption)): 8.1% uptake at | moisture loss (DVS) ([2]; between 20-30% RH): ca. 8.0% | moisture uptake (DVS) ([2]; between 40-40% RH during the sorption cycles): ca. 4.9% | moisture uptake (DVS) ([2]; between 40-50% RH): 8.1% | moisture uptake (DVS) ([2]; between 50-80% RH): ca. 2.2% | KF moisture content [3]: 14.87% moisture | VT-XRPD: Conv. To Form 8 at [4]: at 40-70 °C | VT-XRPD: Conversion to amorph. At [4]: amorph. At ≥90 °C | temperature above which the sample turned amorphous [4]: greater than 90 °C | temperature range of conversion to crystalline Form 8 Compound 1 mono(hydrogen sulfate) [4]: 40-70 °C
